# Reference: US20230263725A1, “INTRANASAL ADMINISTRATION OF AN ANTIOXIDANT COMPOUND FOR TREATING CORONAVIRUS INFECTION” (priority 2020, published 2023)
# “And” between values parts separate entries of the source, which are not always exact repeats. Identical values can stand only once. Like-named read-outs stand apart in the source and are kept apart here.
# How the values were obtained:
# [1] = cited from earlier work; for F total meas (total bioavailability experimentally determined): naltrexone 4 mg
# GSH levels in the brain = settings: NAC delivered intranasally and orally; cited from earlier work
# [2] = system: A/H1N1 Singapore 6/86 influenza virus; settings: oral NAC over 6 months; control 79%; cited from earlier work
# [3] = Safety and tolerability of intranasal NAC in healthy subjects
# SARS-CoV-2 = assay: Oral NAC in mild or moderate COVID-19, open label controlled study NCT04419025; format: in vivo
# [4] = system: brain glutathione (GSH/Cr); assay: Intranasal NAC, brain glutathione by MEGA PRESS MR Spectroscopy in healthy subjects; format: in vivo, humans
# Procedure: In this example, intranasal administration of NAC to healthy humans was studied.
# The study consisted of two study periods each involving 3 subjects and was designed to provide rapid proof-of-concept data on the ability of intranasal NAC to increase brain GSH levels. In Study Period 1, three right-handed male subjects, and 58 were evaluated. After informed consent and completion of a medical history questionnaire, each subject participated in multiple MR Spectroscopy sessions. On the first day, each subject was scanned once. A T1-weighted thin slice data set was acquired for subsequent positioning of a MR spectroscopy voxel (5×5×3 cm3) positioned with its posterior edge covering the genu of the corpus callosum, extending anteriorly into the frontal lobes.
# GSH levels were determined within the volume of interest using […] double-editing for the cysteinyl β-CH2 residue of GSH. Spectral editing was accomplished by refocusing GSH J-evolution during every other acquisition (ON), using a Gaussian pulse centered at the cysteinyl α-CH resonance of GSH at 4.56 p.p.m. During the alternate acquisitions (OFF), the pulse was applied symmetrically about the water peak. The difference-edited GSH spectrum was generated by subtraction of the OFF and ON spectra. Data analysis was accomplished using the GANNET software package which provided information on the GSH/Cr ratio. The Day 1 scan served as an initial baseline.
# On Day 2, another baseline evaluation was performed, along with two additional scans at 1-hour and 2-hours post administration of intranasal NAC. The timing of Day 2 scans was shifted relative to Day 1, such that the time-of-day for the Day 1 baseline scan matched the time-of-day of the Day 2, 1-hour post NAC scan. This is illustrated in FIG. 2 and was done to provide control for potential circadian rhythm effects in GSH levels. In FIG. 2, green bars show times of spectroscopic imaging. The time-of-day for the baseline MRS scan on Day 1 matches the time-of-day for the 1-hour post-NAC scan on Day 2.
# Solution was delivered as six alternating bursts of 0.33 ml to each nostril over the course of 5-10 minutes.
# In Study Period 2, three additional right-handed male subjects, and 31 were studied. MRS data were collected on a single day, with baseline, 1 hr, 2 hrs, and 4 hrs post-NAC evaluations (as illustrated in FIG. 5). The same spectroscopic methods as used in period 1 were employed. However, a multi-dose pump intranasal delivery device was used.
# [5] = intranasal, with versus without DDM
# [6] = study period 1, intranasal 20% MUCOMYST, 1 ml per nostril, mucosal atomization device, subject (male)
# [7] = study period 2, intranasal, multi-dose pump, (male)
# [8] = intranasal + DDM, sumatriptan 10 mg
# [9] = intranasal, without DDM, sumatriptan 20 mg
structure (smiles),measurement,setting,value
"CC(=O)N[C@@H](CS)C(=O)O [NAC, N-acetyl cysteine]",bioavailability of oral NAC,[1]; oral dosing,10% and 9-10%
same,effect on GSH levels in the brain,GSH levels in the brain,increase in GSH levels in the brain
same,developed a symptomatic form of the A/H1N1 Singapore 6/86 influenza virus,[2],25%
same,"changes in heart-rate, breathing rate, O2 saturation or blood pressure",[3]; intranasal NAC,No significant changes
same,duration of transient nausea,[3]; intranasal NAC,< 5 min
same,subjects voicing complaints about the NAC odor,[3]; intranasal NAC,5 of 6
same,adverse events,"[3]; intranasal NAC, 6 subjects",no adverse events were reported
same,subjects reporting very mild transient nausea,"[3]; intranasal NAC, 6 subjects",2
same,complaints of NAC fluid into the throat,"[3]; mucosal atomizer, study period 1",all three subjects complained
same,complaints of NAC fluid into the throat,"[3]; multi-dose pump, study period 2",not found
same,fewer days in the hospital versus no NAC,"SARS-CoV-2; hospitalized group, oral NAC",1 days
same,hospitalization days,"SARS-CoV-2; hospitalized group, oral NAC 25 mg/kg every 4 hours, 6 days without NAC",5 days
same,deaths,"SARS-CoV-2; hospitalized group, oral NAC, group without NAC had 2-3 deaths",no deaths
same,increase in hospitalization needed for those who did not receive oral NAC,SARS-CoV-2; outpatients,~5 x
same,outpatients needing hospitalization,"SARS-CoV-2; outpatients, mild cases, oral NAC 2400 mg then 1200 mg 2x/day for 2 weeks, 15% without NAC",3-4%
same,time of peak levels,"[4]; all subjects, FIG. 8",1 to 2 h
same,effect on brain GSH as measured by MR spectroscopy,[4]; intranasal NAC,statistically significant increase
same,brain GSH levels above baseline at 4 hours,"[4]; intranasal NAC, 4 hours, FIG. 8",~ 35%
same,increase in brain GSH levels (average percent change in GSH/Cr),"[4]; intranasal NAC, combined across all subjects, FIG. 8",> 50%
same,time for which the increase in brain GSH/Cr level is sustained post-administration,[4]; study period 1,at least 2 hours
same,"Day 2, 1-hour post-NAC GSH/Cr",[4]; [6],0.059 and 0.037 and 0.031
same,"Day 2, 2-hours post-NAC GSH/Cr",[4]; [6],0.052 and 0.035 and 0.048
same,time for which increased brain GSH/Cr levels are maintained,[4]; study period 2,at least 4 hrs
same,1-hr post-NAC GSH/Cr,[4]; [7],0.034 and 0.053 and 0.050
same,2-hours post-NAC GSH/Cr,[4]; [7],0.039 and 0.042 and 0.045
same,4 hrs-hours post-NAC GSH/Cr,[4]; [7],0.036 and 0.041 and 0.042
O=C1CC[C@@]2(O)[C@H]3Cc4ccc(O)c5c4[C@@]2(CCN3CC2CC2)[C@H]1O5 [Naltrexone],F total meas (total bioavailability experimentally determined),[1]; [8],95%
same,F total meas (total bioavailability experimentally determined),[1]; [9],65%
CNS(=O)(=O)Cc1ccc2[nH]cc(CCN(C)C)c2c1 [Sumatriptan],F total meas (total bioavailability experimentally determined),[1]; [8],69%
same,F total meas (total bioavailability experimentally determined),[1]; [9],34%
same,increase in bioavailability when dosed together with DDM,[5],35%
